Laboratory results: ChEMBL document CHEMBL1201862, “PubChem BioAssay data set” (2004)
The source made the active and inactive calls.

How the values were obtained:
[1] = luciferase reporter signal suppression in cells – H4 neuroglioma cells, luminescence, dose response (AID 1990); format: functional, cell-based
[2] = system: BJ; test: BJ-TERT fibroblast viability loss – cell-based, RAS-independent, luminescence, dose response (AID 1933); format: functional; details: Homo sapiens
[3] = Luminescence Cell-Based Dose Response HTS to Identify Inhibitors of 5'UTR Stem-Loop Driven Prion Protein mRNA Translation in H4 Neuroglioblastoma Cells. [Related pubchem assays: 1827 (Project Summary), 1813 (Primary HTS)]; format: functional
[4] = alpha-synuclein stem-loop luciferase translation blockers – H4 neuroglioma cells, luminescence, confirmation (AID 1988); format: functional, cell-based
[5] = system: BJ; test: cells; format: functional, cell-based; details: Homo sapiens
[6] = system: BJ; test: BJ-TERT-LT-ST fibroblast viability loss – cell-based, RAS-independent, luminescence, dose response (AID 1935); format: functional; details: Homo sapiens;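 also: BJ fibroblasts immortalized with TERT plus LT and ST oncogenes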
[7] = DRD fibroblast viability loss – cell-based, non-viral oncogenic, luminescence, dose response (AID 1934); format: functional; details: Homo sapiens
[8] = molecular target: T1, Replicative DNA helicase DnaB (Mycobacterium tuberculosis, UniProt P9WMR3); test: DnaB intein splicing inhibitors, dose response, biochemical, cell-free fluorescence (AID 449749); format: functional
T1 sequence (P9WMR3 whole entry): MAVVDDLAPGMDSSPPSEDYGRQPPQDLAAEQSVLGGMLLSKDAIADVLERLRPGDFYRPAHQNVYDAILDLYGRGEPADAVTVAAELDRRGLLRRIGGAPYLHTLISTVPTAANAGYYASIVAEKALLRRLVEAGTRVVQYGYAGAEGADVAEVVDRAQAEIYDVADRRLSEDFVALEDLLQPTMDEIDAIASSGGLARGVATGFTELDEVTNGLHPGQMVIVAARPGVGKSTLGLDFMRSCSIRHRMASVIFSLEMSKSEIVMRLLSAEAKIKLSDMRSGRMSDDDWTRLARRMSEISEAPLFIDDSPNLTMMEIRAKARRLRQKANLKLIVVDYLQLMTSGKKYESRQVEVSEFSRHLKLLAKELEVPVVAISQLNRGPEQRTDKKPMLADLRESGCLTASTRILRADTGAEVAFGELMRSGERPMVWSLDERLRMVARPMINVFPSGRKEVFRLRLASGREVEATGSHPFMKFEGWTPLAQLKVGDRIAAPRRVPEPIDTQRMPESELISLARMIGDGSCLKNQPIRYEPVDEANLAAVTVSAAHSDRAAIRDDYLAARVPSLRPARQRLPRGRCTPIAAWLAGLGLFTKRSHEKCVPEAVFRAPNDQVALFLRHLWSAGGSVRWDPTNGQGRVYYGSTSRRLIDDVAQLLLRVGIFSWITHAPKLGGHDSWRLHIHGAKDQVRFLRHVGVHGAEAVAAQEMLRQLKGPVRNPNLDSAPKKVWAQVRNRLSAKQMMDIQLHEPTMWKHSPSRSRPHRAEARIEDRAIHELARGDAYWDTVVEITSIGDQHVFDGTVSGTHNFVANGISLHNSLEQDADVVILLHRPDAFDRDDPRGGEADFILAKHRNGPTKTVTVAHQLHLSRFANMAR

[9] = system: BJ; test: growth inhibition of engineered Ras-driven BJ cells – cell-based, alamar blue fluorescence, cherrypicked samples, dose response (AID 2631); format: functional; details: Homo sapiens;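 also: confirmatory dose-response assay in RAS-dependent BJ fibroblasts engineered with TERT, LT and ST, with cytotoxicity read by fluorescence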
[10] = molecular target: T2, Protein RecA (Mycobacterium tuberculosis, UniProt P9WHJ3); test: Fluorescence Cell-Free Homogeneous Dose Retest to Identify Inhibitors of RecA-Intein Splicing Activity. [Related pubchem assays (depositor defined):AID2097, AID2223, AID489010, AID492950]; format: functional
T2 sequence (P9WHJ3 whole entry): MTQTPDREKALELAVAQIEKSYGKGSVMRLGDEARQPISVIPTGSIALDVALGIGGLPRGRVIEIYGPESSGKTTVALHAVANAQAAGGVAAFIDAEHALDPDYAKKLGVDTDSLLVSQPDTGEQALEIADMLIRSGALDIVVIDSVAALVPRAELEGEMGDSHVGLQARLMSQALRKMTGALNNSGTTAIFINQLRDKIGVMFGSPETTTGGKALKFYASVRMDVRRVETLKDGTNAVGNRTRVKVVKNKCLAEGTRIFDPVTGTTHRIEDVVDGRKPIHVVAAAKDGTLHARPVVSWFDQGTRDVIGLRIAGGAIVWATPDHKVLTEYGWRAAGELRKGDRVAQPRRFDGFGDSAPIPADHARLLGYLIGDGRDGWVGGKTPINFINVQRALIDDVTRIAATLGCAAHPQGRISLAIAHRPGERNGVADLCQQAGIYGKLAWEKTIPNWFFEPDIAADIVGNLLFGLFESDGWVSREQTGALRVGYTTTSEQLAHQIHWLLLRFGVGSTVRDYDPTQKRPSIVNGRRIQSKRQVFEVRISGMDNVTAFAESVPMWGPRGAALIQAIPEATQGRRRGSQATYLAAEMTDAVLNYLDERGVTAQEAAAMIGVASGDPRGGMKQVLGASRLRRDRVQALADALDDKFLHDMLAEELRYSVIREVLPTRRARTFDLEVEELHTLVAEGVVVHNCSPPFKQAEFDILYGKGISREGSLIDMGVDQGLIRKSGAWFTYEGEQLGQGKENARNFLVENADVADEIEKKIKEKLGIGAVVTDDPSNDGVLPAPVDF

[11] = system: INS1; test: INS-1E survival protection against cytokine death – cell-based, luminescence, retest, dose response (AID 449756); format: functional; details: Rattus norvegicus;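 also: cell death triggered by IL-1 beta plus TNF-alpha plus IFN-gamma mixture; protective hits raise ATP signal compared with cytokine alone wells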
[12] = reduction of Shn3 3'UTR-driven luciferase in osteoblasts – cell-based, Clone20 osteoblasts, firefly luciferase, cherry-picked, dose response (AID 624132); format: functional;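 also: firefly luciferase luminescence from reporter carrying the Shn3 3'UTR in osteoblasts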
[13] = loss of viability in HepG2 cells – cell-based, CellTiter-Glo, cherry-picked, cytotoxicity control for Shn3 inhibitor project, dose response (AID 624134); format: functional
[14] = non-specific 3'UTR reporter inhibition in Clone20-Shn3RL – cell-based, Renilla luciferase, cherry-picked, counter-screen for Shn3 inhibitor project, dose response (AID 624133); format: functional
[15] = Fluorescence-based cell-based high throughput dose response assay for inhibitors of the interaction of nucleotide-binding oligomerization domain containing 2 (NOD2) and the receptor-interacting serine-threonine kinase 2 (RIPK2).; format: functional; details: Homo sapiens
[16] = molecular target: T3, Caspase-6 (Homo sapiens, UniProt P55212); test: inhibition of CASP6 peptide cleavage – biochemical, VEID-R110 fluorescence, cherry-pick, dose response (AID 720632)
T3 sequence (P55212 whole entry): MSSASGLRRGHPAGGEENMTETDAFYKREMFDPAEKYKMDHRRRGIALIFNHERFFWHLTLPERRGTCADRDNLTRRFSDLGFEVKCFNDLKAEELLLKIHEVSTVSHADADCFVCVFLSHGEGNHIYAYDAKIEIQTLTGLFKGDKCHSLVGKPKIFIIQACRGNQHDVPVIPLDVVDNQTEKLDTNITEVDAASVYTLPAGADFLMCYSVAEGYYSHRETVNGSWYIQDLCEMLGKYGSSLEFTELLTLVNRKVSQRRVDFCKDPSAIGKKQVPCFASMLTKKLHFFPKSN

[17] = molecular target: T4, Mannose-6-phosphate isomerase (Homo sapiens, UniProt P34949); test: MPI inhibition at elevated mannose 6-phosphate – biochemical, fluorescence intensity, high mannose 6-phosphate, primary screen (AID 1220)
T4 sequence (P34949 whole entry): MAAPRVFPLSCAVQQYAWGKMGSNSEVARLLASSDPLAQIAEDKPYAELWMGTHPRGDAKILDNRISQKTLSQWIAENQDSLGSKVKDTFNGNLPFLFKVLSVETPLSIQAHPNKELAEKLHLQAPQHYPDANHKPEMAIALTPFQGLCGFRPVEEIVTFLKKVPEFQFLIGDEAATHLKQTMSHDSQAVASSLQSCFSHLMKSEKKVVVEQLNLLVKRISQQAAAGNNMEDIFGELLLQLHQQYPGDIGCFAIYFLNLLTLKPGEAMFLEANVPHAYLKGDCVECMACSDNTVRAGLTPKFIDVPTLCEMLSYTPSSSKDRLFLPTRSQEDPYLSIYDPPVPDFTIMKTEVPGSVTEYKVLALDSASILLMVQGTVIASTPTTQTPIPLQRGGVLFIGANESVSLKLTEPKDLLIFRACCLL

[18] = viability loss in THP-1 monocytes – THP-1 cells, cytotoxicity control for Vif-APOBEC3G degradation inhibitor project, dose response (AID 1117359); format: functional; details: THP-1
[19] = system: Vero; test: viability of Vero cells under compound – cytotoxicity control for flavivirus capping enzyme inhibitors (AID 588742); format: functional; details: Chlorocebus sabaeus
[20] = molecular target: Genome polyprotein (dengue virus type 2, UniProt P29990); test: flavivirus cap methylation enzyme inhibition – biochemical, confirmation dose response, primary screen (AID 588689); format: functional
Sequence of Genome polyprotein (P29990 2492-3391 limits assumed): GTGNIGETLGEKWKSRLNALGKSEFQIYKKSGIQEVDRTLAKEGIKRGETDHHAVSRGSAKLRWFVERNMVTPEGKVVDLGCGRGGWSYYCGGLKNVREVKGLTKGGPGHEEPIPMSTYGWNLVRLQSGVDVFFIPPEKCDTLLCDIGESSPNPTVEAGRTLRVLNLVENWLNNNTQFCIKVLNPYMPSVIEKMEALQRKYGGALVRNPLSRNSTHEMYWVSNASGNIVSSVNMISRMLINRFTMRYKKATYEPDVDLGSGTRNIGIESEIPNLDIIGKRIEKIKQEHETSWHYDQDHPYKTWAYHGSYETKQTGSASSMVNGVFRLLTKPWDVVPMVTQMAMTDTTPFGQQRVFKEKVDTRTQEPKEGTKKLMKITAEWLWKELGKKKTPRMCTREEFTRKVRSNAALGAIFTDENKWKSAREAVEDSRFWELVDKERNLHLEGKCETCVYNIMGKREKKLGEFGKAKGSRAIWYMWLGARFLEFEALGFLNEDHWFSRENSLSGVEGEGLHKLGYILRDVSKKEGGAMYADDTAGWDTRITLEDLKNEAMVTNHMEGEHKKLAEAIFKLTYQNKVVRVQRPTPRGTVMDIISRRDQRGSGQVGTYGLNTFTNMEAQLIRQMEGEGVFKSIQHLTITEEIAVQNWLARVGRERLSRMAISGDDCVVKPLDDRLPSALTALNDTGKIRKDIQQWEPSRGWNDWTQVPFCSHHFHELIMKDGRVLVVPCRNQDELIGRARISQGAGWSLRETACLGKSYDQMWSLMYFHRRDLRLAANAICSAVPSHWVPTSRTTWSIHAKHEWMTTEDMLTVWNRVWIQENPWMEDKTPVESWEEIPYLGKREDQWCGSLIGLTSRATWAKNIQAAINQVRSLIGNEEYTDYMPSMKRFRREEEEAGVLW

For `O=C(Nc1ccc2nc3n(c(=O)c2c1)CCCCC3)c1c(F)ccc([N+](=O)[O-])c1F`, the EC50 [1] was > 120 µM (not active), the EC50 [2] was 17.7 µM (active) and the EC50 [3] was > 120 µM (not active). For the same compound, the EC50 [4] was > 120 µM (not active), the EC50 [5] was > 150 µM (inconclusive) and the EC50 [6] was 50.7 µM (inconclusive). The EC50 [7] was 4.04 µM (inconclusive), the AC50 [8] was 14.8 µM (active) and the EC50 [9] was 0.571 µM (active). For the same compound, the EC50 [10] was 5.17 µM (active), the AC50 [11] was 6.28 µM (active) and the AC50 [12] was 2.3 µM (active). The AC50 [13] was 12.5 µM (active), the AC50 [14] was 4.65 µM (active) and the IC50 [15] was 8.8 µM (active). For the same compound, the AC50 [16] was 4.39 µM (active).

In the case of `COc1ccccc1-n1c(SCC(=O)NCc2ccc3c(c2)OCO3)nc2cc([N+](=O)[O-])ccc21`, the IC50 [17] is reported as > 50 µM (not active) and the CC50 [18] is reported as > 40 µM (active).

In the case of `Cc1ccc(NC(=O)c2cc(S(=O)(=O)NCC3CCCO3)ccc2F)cc1` (stereo not given), the AC50 [16] is reported as 45.9 µM (active).

In the case of `CC(=O)N1CCc2c(sc(NC(=O)c3ccc([N+](=O)[O-])o3)c2C(N)=O)C1`, the CC50 [19] is reported as 4.1 µM (active), the IC50 [20] is reported as 89.3 µM (active) and the AC50 [12] is reported as 1.85 µM (active). The AC50 [13] was 20 µM (active), the AC50 [14] was 13.1 µM (active) and the AC50 [16] was 12.7 µM (active).
